The values below come from US12479879B2, “Method for preparing disodium 5′-guanylate heptahydrate crystal” (CJ CHEILJEDANG CORPORATION, priority 2019, dated 2025).

The term solubility (thermodynamic) denotes the concentration in solution at equilibrium with solid.

A short description of this data set: Solubility of 5′-guanylic acid in aqueous sodium chloride solutions (saturated mixed solution, supernatant concentration). The settings on record: for Concentration of 5′-Guanylic acid in mixed solution: 25° C.; for 5′-Guanylic acid concentration (g/L) in mixed solution: 40° C.; for solubility thermodynamic: aqueous sodium chloride solution, saline or isotonic.

[1] abbreviates: sodium chloride concentration 300 g/L, supernatant of saturated solution.
The mark [2] stands for this setting: sodium chloride concentration 310 g/L, supernatant of saturated solution.
The mark [3] stands for this setting: sodium chloride concentration 350 g/L, supernatant of saturated solution.
The mark [4] stands for this setting: sodium chloride concentration 360 g/L, supernatant of saturated solution.
The mark [5] stands for this setting: sodium chloride concentration 400 g/L, sodium chloride crystals precipitated.

≈ marks a conversion by molar mass, not a printed value.

Experimental: With the aqueous 5′-guanylic acid solution added to different concentrations of aqueous sodium chloride solutions at temperature 40° C. and 25° C., the solubility of 5′-guanylic acid was examined.
Specifically, the aqueous 5′-guanylic acid solution was sufficiently dissolved in each of the aqueous sodium chloride solutions at 40° C. and 25° C., respectively, to prepare saturated solutions. As a result, 160 g/L to 360 g/L saturated solution of sodium chloride were prepared. […] Then, the concentrations (g/L) of 5′-guanylic acid in supernatants obtained by centrifuging each of the saturated solutions, i.e., the mixed solutions were measured.

`Nc1nc2c(ncn2[C@@H]2O[C@H](COP(=O)(O)O)[C@@H](O)[C@H]2O)c(=O)[nH]1` [5′-Guanylic acid, 5′-guanylic acid]: the “Concentration of 5′-Guanylic acid in mixed solution” value reads like this: under setting [1], 18100 µg/mL; under setting [2], 18200 µg/mL; under setting [3], 18200 µg/mL; under setting [4], 18200 µg/mL; under setting [5], 18300 µg/mL. Besides, the “5′-Guanylic acid concentration (g/L) in mixed solution” value worked out at 49.9 g/L under setting [1]; 49.5 g/L under setting [2]; 48.9 g/L under setting [3]; 49.8 g/L under setting [4]; 49.6 g/L under setting [5]. The solubility (thermodynamic) was found to be 40.1 mg/mL (≈ 110 mM) (25 °C, Concentration of 5′-Guanylic acid in mixed solution (g/L), sodium chloride concentration 160 g/L, supernatant of saturated solution); 26.4 mg/mL (≈ 72.7 mM) (25 °C, Concentration of 5′-Guanylic acid in mixed solution (g/L), sodium chloride concentration 200 g/L, supernatant of saturated solution); 22.2 mg/mL (≈ 61.1 mM) (25 °C, Concentration of 5′-Guanylic acid in mixed solution (g/L), sodium chloride concentration 230 g/L, supernatant of saturated solution); 19.2 mg/mL (≈ 52.9 mM) (25 °C, Concentration of 5′-Guanylic acid in mixed solution (g/L), sodium chloride concentration 280 g/L, supernatant of saturated solution); 18.2 mg/mL (≈ 50.1 mM) (25 °C, Concentration of 5′-Guanylic acid in mixed solution (g/L), sodium chloride concentration 420 g/L, sodium chloride crystals precipitated); 86.5 mg/mL (≈ 238 mM) (40 °C, 5′-Guanylic acid concentration (g/L) in mixed solution, sodium chloride concentration 160 g/L, supernatant of saturated solution). Further, the thermodynamic solubility by setting is: (40 °C, 5′-Guanylic acid concentration (g/L) in mixed solution, sodium chloride concentration 200 g/L, supernatant of saturated solution) 62.7 mg/mL (≈ 173 mM); (40 °C, 5′-Guanylic acid concentration (g/L) in mixed solution, sodium chloride concentration 230 g/L, supernatant of saturated solution) 57.1 mg/mL (≈ 157 mM); (40 °C, 5′-Guanylic acid concentration (g/L) in mixed solution, sodium chloride concentration 280 g/L, supernatant of saturated solution) 50.1 mg/mL (≈ 138 mM); (40 °C, 5′-Guanylic acid concentration (g/L) in mixed solution, sodium chloride concentration higher than 400 g/L, sodium chloride crystals precipitated) 48.7 mg/mL (≈ 134 mM).
